We go through 15 compounds from US20240368204A1, “SMALL MOLECULAR CD73 ANTAGONIST AND USE THEREOF” (XIZANG HAISCO PHARMACEUTICAL CO., LTD., priority 2021, published 2024).

The target in one test is Human recombinant protein CD73 (Homo sapiens (Human), UniProt P21589). Put plainly: CD73 enzyme activity in vitro (Malachite Green, AMP substrate). It is filed as biochemical. Conditions: recombinant CD73, 100 μM AMP substrate solution, absorbance at 620 nm. How it is done: 1. Test Method for CD73 Enzyme Activity In Vitro
Human recombinant protein CD73, sequence (P21589 27-574): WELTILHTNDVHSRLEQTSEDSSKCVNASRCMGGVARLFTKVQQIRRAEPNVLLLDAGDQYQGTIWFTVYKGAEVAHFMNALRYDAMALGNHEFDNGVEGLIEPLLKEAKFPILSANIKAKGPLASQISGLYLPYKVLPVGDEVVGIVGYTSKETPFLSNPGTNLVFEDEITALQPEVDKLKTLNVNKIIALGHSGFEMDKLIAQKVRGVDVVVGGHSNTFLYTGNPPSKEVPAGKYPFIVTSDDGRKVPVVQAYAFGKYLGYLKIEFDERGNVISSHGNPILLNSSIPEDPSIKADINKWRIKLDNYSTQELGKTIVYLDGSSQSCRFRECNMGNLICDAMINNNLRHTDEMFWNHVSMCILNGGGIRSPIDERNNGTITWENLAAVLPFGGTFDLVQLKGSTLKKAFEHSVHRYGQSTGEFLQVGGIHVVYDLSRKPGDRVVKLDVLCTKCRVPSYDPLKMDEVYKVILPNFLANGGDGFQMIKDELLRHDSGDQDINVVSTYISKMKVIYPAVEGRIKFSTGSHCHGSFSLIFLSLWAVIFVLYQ
Human recombinant protein CD73 (Acro, Cat. No. CD3-H52H7) was prepared into a 0.04 ng/μL protein solution, and substrate AMP (Sigma, Cat. No. A1752-1G) was prepared into a 100 μM substrate solution. 5 μL of compounds at different concentrations were added into a 384-well white transparent bottom plate, 5 μL of 0.04 ng/μL recombinant CD73 enzyme solution was added, and the mixture was incubated at room temperature for 15 minutes. 10 μL of 100 μM substrate solution was added, the mixture was incubated at 37° C. for 40 minutes, 5 μL of Malachite Green Reagent A (R&D, Cat. No. DY996) was added, the mixture was incubated at room temperature for 10 minutes, and finally, 5 μL of Malachite Green Reagent B was added, the mixture was incubated at room temperature for 20 minutes, and a microplate reader PHERAstar FSX instrument was used to detect the absorbance at 620 nm. IC50 values were calculated using the origin9.2 software. The calculation formula of the inhibition rate was shown in Formula 1, wherein ODsample is the readout for the compound, ODnegative is the readout for the negative control without substrate, and ODpositive is the readout for the vehicle control.
One may read the IC50 as the concentration that inhibits the measured activity by half. Consider `C[C@H](Nc1cc(Cl)nc2c1cnn2[C@@H]1O[C@H](COP(=O)(O)CP(=O)(O)O)[C@](O)(CO)[C@H]1O)c1ccccc1F` [Compound 12, (((((2R,3S,4R,5R)-5-(6-chloro-4-(((S)-1-(2-fluorophenyl)ethyl)amino)-1H-pyrazolo[3,4-b]pyridin-1-yl)-3,4-dihydroxy-3-(hydroxymethyl)tetrahydrofuran-2-yl)methoxy)(hydroxy)phosphoryl)methyl)phosphonic acid], for which the IC50 came out at 0.4 nM. Same read-out and setting: the result for `CONc1nc(Cl)nc2c1cnn2[C@@H]1O[C@H](COP(=O)(O)CP(=O)(O)O)[C@@H](O)[C@H]1O` [Compound 18, (((((2R,3S,4R,5R)-5-(6-chloro-4-(methoxyamino)-1H-pyrazolo[3,4-d]pyrimidin-1-yl)-3,4-dihydroxytetrahydrofuran-2-yl)methoxy)(hydroxy)phosphoryl)methyl)phosphonic acid] reads 1.8 nM; that for `CONc1cc(Cl)nc2c1cnn2[C@@H]1O[C@H](COP(=O)(O)CP(=O)(O)O)[C@@H](O)[C@H]1O` [Compound 24, (((((2R,3S,4R,5R)-5-(6-chloro-4-(methoxyamino)-1H-pyrazolo[3,4-b]pyridin-1-yl)-3,4-dihydroxytetrahydrofuran-2-yl)methoxy)(hydroxy)phosphoryl)methyl) phosphonic acid], 5.3 nM; that for `O=P(O)(O)CP(=O)(O)OC[C@H]1O[C@@H](n2ncc3c(NOC4CCCC4)nc(Cl)nc32)[C@H](O)[C@@H]1O` [Compound 25, (((((2R,3S,4R,5R)-5-(6-chloro-4-((cyclopentyloxy)amino)-1H-pyrazolo[3,4-d]pyrimidin-1-yl)-3,4-dihydroxytetrahydrofuran-2-yl)methoxy)(hydroxy)phosphoryl)methyl)phosphonic acid], 0.4 nM. Still for that read-out and setting: the value for `CC(C)ONc1cc(Cl)nc2c1cnn2[C@@H]1O[C@H](COP(=O)(O)CP(=O)(O)O)[C@@H](O)[C@H]1O` [Compound 26, (((((2R,3 S,4R,5R)-5-(6-chloro-4-(isopropoxyamino)-1H-pyrazolo[3,4-b]pyridin-1-yl)-3,4-dihydroxytetrahydrofuran-2-yl)methoxy)(hydroxy)phosphoryl)methyl)phosphonic acid] was 2.9 nM; that for `CC(C)ONc1nc(Cl)nc2c1cnn2[C@@H]1O[C@H](COP(=O)(O)CP(=O)(O)O)[C@@H](O)[C@H]1O` [Compound 27, (((((2R,3S,4R,5R)-5-(6-chloro-4-(isopropoxyamino)-1H-pyrazolo[3,4-d]pyrimidin-1-yl)-3,4-dihydroxytetrahydrofuran-2-yl)methoxy)(hydroxy)phosphoryl)methyl)phosphonic acid] was 1.7 nM. As for `O=P(O)(O)CP(=O)(O)OC[C@H]1O[C@@H](n2ncc3c(N4C[C@H]5CCC[C@H]5C4)nc(Cl)nc32)[C@H](O)[C@@]1(O)CO` [Compound 28, (((((2R,3S,4R,5R)-5-(6-chloro-4-((3aR,6aS)-hexahydrocyclopenta[c]pyrrol-2(1H)-yl)-1H-pyrazolo[3,4-d]pyrimidin-1-yl)-3,4-dihydroxy-3-(hydroxymethyl)tetrahydrofuran-2-yl)methoxy)(hydroxy)phosphoryl)methyl)phosphonic acid], the IC50 came out at 0.7 nM. As for `O=P(O)(O)CP(=O)(O)OC[C@H]1O[C@@H](n2ncc3c(N4C[C@H]5CCC[C@H]5C4)cc(Cl)nc32)[C@H](O)[C@@]1(O)CO` [Compound 29, (((((2R,3S,4R,5R)-5-(6-chloro-4-((3aR,6aS)-hexahydrocyclopenta[c]pyrrol-2(1H)-yl)-1H-pyrazolo[3,4-b]pyridin-1-yl)-3,4-dihydroxy-3-(hydroxymethyl)tetrahydrofuran-2-yl)methoxy)(hydroxy)phosphoryl)methyl) phosphonic acid], the IC50 was determined as 2.6 nM.

Turning to `O=P(O)(O)CP(=O)(O)OC[C@H]1O[C@@H](n2ncc3c(NOCc4ccccc4)nc(Cl)nc32)[C@H](O)[C@@H]1O` [Compound 30, (((((2R,3S,4R,5R)-5-(4-((benzyloxy)amino)-6-chloro-1H-pyrazolo[3,4-d]pyrimidin-1-yl)-3,4-dihydroxytetrahydrofuran-2-yl)methoxy)(hydroxy)phosphoryl)methyl)phosphonic acid], the IC50 turned out to be 0.2 nM.

On to `O=P(O)(O)CP(=O)(O)OC[C@H]1O[C@H](n2ncc3c(N4C[C@H]5CCC[C@H]5C4)nc(Cl)nc32)[C@H](O)[C@@]1(O)CO` [Compound 31, (((((2R,3S,4R,5S)-5-(6-chloro-4-((3aR,6aS)-hexahydrocyclopenta[c]pyrrol-2(1H)-yl)-1H-pyrazolo[3,4-d]pyrimidin-1-yl)-3,4-dihydroxy-3-(hydroxymethyl)tetrahydrofuran-2-yl)methoxy)(hydroxy)phosphoryl)methyl)phosphonic acid], for which the IC50 was found to be 0.7 nM. With `O=P(O)(O)CP(=O)(O)OC[C@H]1O[C@@H](n2ncc3c(N4C[C@H]5CCC[C@H]5C4)cc(Cl)nc32)[C@H](O)[C@@]1(O)C(F)F` [Compound 32, (((((2R,3S,4R,5R)-5-(6-chloro-4-((3aR,6aS)-hexahydrocyclopenta[c]pyrrol-2(1H)-yl)-1H-pyrazolo[3,4-b]pyridin-1-yl)-3-(difluoromethyl)-3,4-dihydroxytetrahydrofuran-2-yl)methoxy)(hydroxy)phosphoryl)methyl)phosphonic acid], the IC50 came out at 0.9 nM. On the same count and under the same terms, the value for `O=P(O)(O)CP(=O)(O)OC[C@H]1O[C@@H](n2ncc3c(N4C[C@H]5CCC[C@H]5C4)nc(Cl)nc32)[C@H](O)[C@@]1(O)C(F)F` [Compound 33, (((((2R,3S,4R,5R)-5-(6-chloro-4-((3aR,6aS)-hexahydrocyclopenta[c]pyrrol-2(1H)-yl)-1H-pyrazolo[3,4-d]pyrimidin-1-yl)-3-(difluoromethyl)-3,4-dihydroxytetrahydrofuran-2-yl)methoxy)(hydroxy)phosphoryl)methyl)phosphonic acid] was 1.2 nM. Regarding `C[C@@]1(O)[C@@H](COP(=O)(O)CP(=O)(O)O)O[C@@H](n2ncc3c(N4C[C@H]5CCC[C@H]5C4)nc(Cl)nc32)[C@@H]1O` [Compound 38, (((((2R,3S,4R,5R)-5-(6-chloro-4-((3aR,6aS)-hexahydrocyclopenta[c]pyrrol-2(1H)-yl)-1H-pyrazolo[3,4-d]pyrimidin-1-yl)-3,4-dihydroxy-3-methyltetrahydrofuran-2-yl)methoxy)(hydroxy)phosphoryl)methyl)phosphonic acid], the IC50 worked out at 0.3 nM. With `C#C[C@@]1(O)[C@@H](COP(=O)(O)CP(=O)(O)O)O[C@@H](n2ncc3c(N4C[C@H]5CCC[C@H]5C4)nc(Cl)nc32)[C@@H]1O` [Compound 40, (((((2R,3S,4R,5R)-5-(6-chloro-4-((3aR,6aS)-hexahydrocyclopenta[c]pyrrol-2(1H)-yl)-1H-pyrazolo[3,4-d]pyrimidin-1-yl)-3-ethynyl-3,4-dihydroxytetrahydrofuran-2-yl)methoxy)(hydroxy)phosphoryl)methyl)phosphonic acid], the half-inhibitory concentration (IC50) came to 0.06 nM.

A further test concerns B16F10 xenograft tumor. Description: B16F10 xenograft tumor model in vivo. Also noted: species or system mouse. The following applies: 30 mg/kg, single agent. The procedure:
B16F10 Xenograft Tumor Model In Vivo
B16F10 cells were purchased from ATCC, the cell medium was DMEM+10% FBS+1% double antibody, and the cells were cultured in an incubator at 37° C. under 5% CO2. After the cells had grown to a number sufficient for inoculation, the cells were harvested. The cell-containing culture solution was transferred to a 50 mL sterile centrifuge tube, and centrifuged at 1500 rpm for 3 minutes. The centrifuge tube was taken out after centrifugation, and the supernatant was discarded. The cells were resuspended in a pre-cooled PBS and centrifuged at 1500 rpm for 3 minutes, and after centrifugation, the supernatant was discarded; the process was repeated twice. Finally, the cells were resuspended in a pre-cooled PBS. After counting, the cells were diluted to 1×10^6 cells/mL with a pre-cooled PBS. […] The second day of inoculation was recorded as Day 0, and compound 28 (the vehicle was phosphate buffer saline) was given by intragastric administration every day after randomization, and animals in both the group with the anti-PD-1 antibody (anti-PD-1; BioXcell, Cat. CD279) and the group with combined drugs were injected intraperitoneally with the anti-PD-1 antibody (twice a week). The long and short diameters of the tumors were measured with an electronic vernier caliper, and the body weight of the animals was recorded. […]
In the case of `C[C@H](Nc1cc(Cl)nc2c1cnn2[C@@H]1O[C@H](COP(=O)(O)CP(=O)(O)O)[C@@H](O)[C@H]1O)c1ccccc1F` [AB680, reference compound], the “TGI % (day 15)” value was 57.96%.

The same test, now with this note: 100 mg/kg, intragastric administration every day, single agent.
For `O=P(O)(O)CP(=O)(O)OC[C@H]1O[C@@H](n2ncc3c(N4C[C@H]5CCC[C@H]5C4)nc(Cl)nc32)[C@H](O)[C@@]1(O)CO` [Compound 28, (((((2R,3S,4R,5R)-5-(6-chloro-4-((3aR,6aS)-hexahydrocyclopenta[c]pyrrol-2(1H)-yl)-1H-pyrazolo[3,4-d]pyrimidin-1-yl)-3,4-dihydroxy-3-(hydroxymethyl)tetrahydrofuran-2-yl)methoxy)(hydroxy)phosphoryl)methyl)phosphonic acid], the “TGI % (day 15)” value was determined as 50.12%.
